# Assay results: ChEMBL document CHEMBL5727716, “Guanidine derivative and medical use thereof” (2020)
# Target: T1, Mucosa-associated lymphoid tissue lymphoma translocation protein 1 (Homo sapiens, UniProt Q9UDY8)
# T1 sequence (Q9UDY8 whole entry): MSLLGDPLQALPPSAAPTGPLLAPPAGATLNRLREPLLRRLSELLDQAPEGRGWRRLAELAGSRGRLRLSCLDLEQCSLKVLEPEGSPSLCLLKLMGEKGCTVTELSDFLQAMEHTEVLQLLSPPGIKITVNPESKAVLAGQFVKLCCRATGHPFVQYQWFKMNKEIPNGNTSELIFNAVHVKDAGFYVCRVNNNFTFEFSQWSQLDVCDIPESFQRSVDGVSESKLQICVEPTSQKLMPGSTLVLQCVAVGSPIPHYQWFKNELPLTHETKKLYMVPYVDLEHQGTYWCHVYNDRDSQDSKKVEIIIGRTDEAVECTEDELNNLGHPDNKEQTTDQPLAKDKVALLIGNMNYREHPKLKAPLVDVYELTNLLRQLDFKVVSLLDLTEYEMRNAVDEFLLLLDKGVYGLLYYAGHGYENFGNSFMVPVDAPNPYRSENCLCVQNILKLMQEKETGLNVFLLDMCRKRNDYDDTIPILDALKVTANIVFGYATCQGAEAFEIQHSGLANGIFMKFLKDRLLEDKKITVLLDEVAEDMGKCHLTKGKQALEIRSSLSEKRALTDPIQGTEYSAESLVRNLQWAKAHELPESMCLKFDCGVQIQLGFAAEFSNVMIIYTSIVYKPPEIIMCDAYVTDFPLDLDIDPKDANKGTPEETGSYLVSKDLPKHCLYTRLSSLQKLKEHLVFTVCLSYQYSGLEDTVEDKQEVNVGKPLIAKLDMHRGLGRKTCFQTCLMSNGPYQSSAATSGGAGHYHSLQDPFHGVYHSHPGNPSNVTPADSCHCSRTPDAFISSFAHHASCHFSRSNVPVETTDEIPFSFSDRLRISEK
# Test: Inhibition of Protease Activity Assay: Full-length cDNA of human MALT1 gene (GenBank accession No: AB026118.1) amplified by PCR was inserted in flame to a SalI site located downstream of GST gene in a pGEX6P3 vector (GE Healthcare Japan Corp.) to prepare a vector (hereinafter, referred to as a pGEX6P3-MALT1 vector). Subsequently, E. coli for protein expression (BL21-RIL-codon plus-DE3, Agilent Technologies, Inc.) was transformed with the pGEX6P3-MALT1 vector and then analyzed by ampicillin resistance screening and colony PCR to obtain an E. coli strain expressing recombinant GST fusion MALT1. Protein expression was induced with isopropyl-(3-thiogalactopyranoside. After the expression induction, E. coli precipitates were recovered by centrifugation from the E. coli culture solution, and the E. coli precipitates were homogenized and then centrifuged to obtain a supernatant. The supernatant was purified using GSTrap FF column (GE Healthcare Japan Corp.) to obtain recombinant GST fusion MALT1.B) Evaluation of Inhibition of Protease Activity of MALT1:To 89 μL of an enzyme solution ([…] GST fusion MALT1, 50 mmol/L MES, 150 mmol/L NaCl, 10% sucrose, 0.1% CHAPS, 10 mmol/L dithiothreitol, and 1 mol/L tri-ammonium citrate) per specimen, 1 μL of a test compound (DMSO-diluted solution) of each concentration was added to prepare a mixed solution. […]
smiles,measurement,value
CCCC(=O)/N=C(\N)NCc1cnc(-c2ccc(Cl)cc2)c(-c2ccc(Cl)cc2)c1,IC50,572 nM
